According to patent US9249158B2, “Cytomegalovirus inhibitor compounds” (Boehringer Ingelheim International GmbH, priority 2012, dated 2016):
Read-outs that look alike come from different tables or passages of the source.

Target: T1, purified recombinant HCMV polymerase (UL54) (Human cytomegalovirus, UniProt P08546)
T1 construct: made in house; host or cells: Sf21 insect cells (baculovirus)
Assay: HCMV Polymerase LANCE TR-FRET Assay
Assay type: biochemical
Description: The codon optimized UL54 HCMV polymerase gene for expression in insect cells is obtained from DNA 2.0 (Menlo Park, Calif.) and subcloned in 3′ of the Glutathione-S-transferase (GST) gene in a pFastBac-derived vector. Bacmids and baculoviruses are generated and expression performed in Sf21 insect cells cultured in SF900 II SFM media. Infection using the baculoviruses is performed using an MOI of 5-10 and the cells are harvested 48 h post-infection and frozen.
All purification procedures are performed at 4° C. The cell pellet from 1 L of culture (1×10^9 cells) is resuspended in 25 mL of 50 mM Tris pH 7.5, 1 mM TCEP, 0.1 mM EDTA, 150 mM NaCl, 10% Glycerol, 1 mM PMSF, 2 μg/mL Leupeptin, 2 μg/mL Antipain, 2 μg/mL Pepstatin A. The solution is homogenized using a Dounce tissue grinder. Following homogenization, the volume is increased to 40 mL followed by centrifugation at 750×g for 5 min to remove nuclei. The supernatant is then transferred and 3 cc of 50% slurry of glutathione-sepharose 4B resin is added. The mixture is incubated on a rotator for 1 h. The slurry is centrifuged at 500 g for 5 min. The supernatant is discarded and the pellet is resuspended in 10× volume of wash buffer (50 mM Tris pH 7.5, 1 mM TCEP, 0.1 mM EDTA, 150 mM NaCl, 10% Glycerol) and incubated for 5 min. The slurry is centrifuged at 500 g for 5 min and the supernatant is discarded. The wash step is performed 5 times. The elution is performed by adding 1.5 volume of elution buffer (50 mM Tris pH 7.5, 1 mM TCEP, 0.1 mM EDTA, 150 mM NaCl, 10% Glycerol, 20 mM glutathione) and incubating on a rotator for 15 min. The slurry is centrifuged at 500 g for 5 min and the supernatant is removed and kept. The elution step is performed four times. The supernatants are pooled and centrifuged at 500×g for 5 min to remove resin particles and frozen at −80° C.
The frozen protein is thawed and the NaCl concentration reduced to 37.5 mM by the addition of 3 volumes of DEAE buffer A (50 mM Tris pH 7.5, 1 mM TCEP, 0.1 mM EDTA, 10% Glycerol). The protein is loaded on a HiTrap DEAE-Sepharose μF column and eluted using a gradient with DEAE buffer B (50 mM Tris pH 7.5, 1 mM TCEP, 0.1 mM EDTA, 10% Glycerol, 1 M NaCl). UL54 eluted at 140 mM NaCl. The DEAE fractions are pooled, frozen and stored at −80° C. The protein concentration is determined by OD280 (A280=1.03 mg/mL).
This non-radiometric assay determines the enzymatic activity of purified recombinant HCMV polymerase (UL54) using a Digoxigenin-labeled oligonucleotide priming a heteropolymeric template. The enzymatic activity is determined by incorporating Biotin-dUTP in the nascent complementary strand. The signal is generated by Fluorescence Resonance Energy Transfer from the donor (Anti-Digoxigenin-Europium Chelate binding with the primer) to the acceptor Streptavidin-AlloPhycoCyanin (SA-APC) binding to the biotin of the labeled nucleotides incorporated in proximity.
Serial dilutions of the DMSO stock compound solution are performed using DMSO in columns 2-11 and 14-23. DMSO alone is present in columns 1, 12, 13 and 24. The plate is centrifuged at 200×g for 30 sec. 35 μL of compound dilution buffer (10 mM Hepes pH 7.5, 25 mM KCl, 5 mM MgCl2, 1 mM TCEP) is added to 5 μL of the diluted compound in DMSO to obtain 12.5% DMSO. 4 μL per well of the 12.5% DMSO serial dilution compound solution is added to the assay plate.
The assay conditions are the following: 10 mM HEPES pH 7.5, 25 mM KCl, 7.5 mM NaCl, 5 mM MgCl2, 0.2 mg BSA/mL, 1 mM TCEP, 1.5% glycerol, 5% DMSO, 235 nM dATP, 350 nM dCTP, 350 nM dGTP, 235 nM dTTP, 12 nM biotin-16-dUTP, 23.5 nM Dig-primer/template, 2 nM GST-UL54. The assay volume is 10 μL. […]

[1] = 2 nM GST-UL54, 37° C. for 30 min, 5% DMSO, read-out: Example 34 IC50

T1 sequence (P08546 whole entry): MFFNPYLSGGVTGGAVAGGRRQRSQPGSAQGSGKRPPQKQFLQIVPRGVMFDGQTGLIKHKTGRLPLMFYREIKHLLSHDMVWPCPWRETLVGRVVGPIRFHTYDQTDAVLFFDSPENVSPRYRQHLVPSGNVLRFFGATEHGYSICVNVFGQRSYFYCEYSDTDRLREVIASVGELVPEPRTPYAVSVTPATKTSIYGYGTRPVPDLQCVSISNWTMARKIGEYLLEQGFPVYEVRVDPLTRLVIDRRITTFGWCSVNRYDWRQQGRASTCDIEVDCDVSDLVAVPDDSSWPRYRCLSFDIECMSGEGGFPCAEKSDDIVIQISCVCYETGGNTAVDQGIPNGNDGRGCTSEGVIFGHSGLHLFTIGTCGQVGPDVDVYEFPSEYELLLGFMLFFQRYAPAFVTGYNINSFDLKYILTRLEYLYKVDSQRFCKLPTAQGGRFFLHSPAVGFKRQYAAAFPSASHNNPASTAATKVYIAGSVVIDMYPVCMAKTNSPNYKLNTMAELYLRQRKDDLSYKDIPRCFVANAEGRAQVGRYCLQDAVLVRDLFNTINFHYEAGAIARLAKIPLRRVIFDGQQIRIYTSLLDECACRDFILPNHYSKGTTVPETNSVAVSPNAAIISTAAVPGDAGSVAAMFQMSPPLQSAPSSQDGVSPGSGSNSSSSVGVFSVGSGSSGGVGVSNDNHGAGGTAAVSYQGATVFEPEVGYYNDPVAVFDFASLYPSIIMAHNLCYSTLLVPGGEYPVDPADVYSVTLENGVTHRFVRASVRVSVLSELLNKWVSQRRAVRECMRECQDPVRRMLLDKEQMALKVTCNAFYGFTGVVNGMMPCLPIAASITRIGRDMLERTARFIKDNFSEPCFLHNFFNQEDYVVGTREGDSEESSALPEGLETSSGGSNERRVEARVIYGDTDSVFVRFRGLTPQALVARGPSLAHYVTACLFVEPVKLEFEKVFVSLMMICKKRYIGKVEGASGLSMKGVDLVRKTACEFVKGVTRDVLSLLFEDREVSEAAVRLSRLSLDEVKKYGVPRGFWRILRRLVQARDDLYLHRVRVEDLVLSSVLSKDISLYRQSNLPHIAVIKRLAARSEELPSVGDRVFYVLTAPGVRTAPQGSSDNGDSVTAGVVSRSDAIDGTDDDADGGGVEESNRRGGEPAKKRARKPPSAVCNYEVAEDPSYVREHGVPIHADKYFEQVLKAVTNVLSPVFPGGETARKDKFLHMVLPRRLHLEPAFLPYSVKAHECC

| IC50 [1] [nM] | SMILES | IC50 [nM] |
| --- | --- | --- |
| 38 | Cc1nc2cnc3c(cc(C(=O)NCc4ccc(Cl)cc4)c(=O)n3CC(=O)N3CC(C)(F)C3)c2n1C [Compound 1002] |  |
| 26 | CCn1cnc2cnc3c(cc(C(=O)NCc4ccc(Cl)cc4)c(=O)n3CC(=O)N3CC(C)(F)C3)c21 [Compound 1004] |  |
| 48 | Cc1nc2cnc3c(cc(C(=O)NCc4ccc(Cl)cc4)c(=O)n3CC(=O)N3CC(F)(CF)C3)c2n1C [Compound 1007] |  |
| 74 | Cn1cc(-c2nc3cnc4c(cc(C(=O)NCc5ccc(Cl)cc5)c(=O)n4CC(=O)N4CC(C)(F)C4)c3n2C)cn1 [Compound 1016] |  |
| 29 | CC1(F)CN(C(=O)Cn2c(=O)c(C(=O)NCc3ccc(Cl)cc3)cc3c4c(cnc32)ncn4CCO)C1 [Compound 1024] |  |
| 58 | COCc1nc2cnc3c(cc(C(=O)NCc4ccc(Cl)cc4)c(=O)n3CC(=O)N3CC(C)(F)C3)c2n1C [Compound 1031] |  |
| 78 | Cn1c(N2CCCC2=O)nc2cnc3c(cc(C(=O)NCc4ccc(Cl)cc4)c(=O)n3CC(=O)N3CC(C)(F)C3)c21 [Compound 1038] |  |
| 110 | Cn1c(N2CCOCC2)nc2cnc3c(cc(C(=O)NCc4ccc(Cl)cc4)c(=O)n3CC(=O)N3CC(C)(F)C3)c21 [Compound 1056] |  |
| 60 | Cn1c(-n2ccnc2)nc2cnc3c(cc(C(=O)NCc4ccc(Cl)cc4)c(=O)n3CC(=O)N3CC(C)(F)C3)c21 [Compound 1061] |  |
| 35 | Cc1nc2cnc3c(cc(C(=O)NCc4ccc(Cl)cc4)c(=O)n3CC(=O)N3CC(F)(CO)C3)c2n1C [Compound 1065] |  |
| 61 | CN(C)Cc1nc2cnc3c(cc(C(=O)NCc4ccc(Cl)cc4)c(=O)n3CC(=O)N3CC(C)(C)C3)c2n1C [Compound 1070] |  |
| 260 | Cc1nc2cnc3c(cc(C(=O)NCc4ccc(Cl)cc4)c(=O)n3CC(=O)N3CC4(C3)NCC4(F)F)c2n1C [Compound 1072] |  |
| 42 | Cc1nc2cnc3c(cc(C(=O)NCc4ccc(Cl)cc4)c(=O)n3CC(=O)N(C)CC(C)(C)CO)c2n1C [Compound 1073] |  |
| 75 | COc1nc2cnc3c(cc(C(=O)NCc4ccc(Cl)cc4)c(=O)n3CC(=O)N3CC(C)(C#N)C3)c2n1C [Compound 1074] |  |
| 210 | CN(C)c1nc2c3cc(C(=O)NCc4ccc(Cl)cc4)c(=O)n(CC(=O)N4CC(C)(F)C4)c3ncc2n1C [Compound 2017] |  |
| 140 | Cc1nc2cnc3c(cc(C(=O)NCc4ccc(C#N)cc4)c(=O)n3CC(=O)N3CC(C)(F)C3)c2n1C [Compound 3001] |  |
| 93 | Cc1nc2c3cc(C(=O)NCc4ccc(C#N)cc4)c(=O)n(CC(=O)N4CC(C)C4)c3ncc2n1C [Compound 4003] |  |
| 69 | CC1(F)CN(C(=O)Cn2c(=O)c(C(=O)NCc3ccc(Cl)cc3)cc3c4c(cnc32)nc2n4CCOC2)C1 [Compound 5002] |  |
| 77 | CC1(F)CN(C(=O)Cn2c(=O)c(C(=O)NCc3ccc(Cl)cc3)cc3c4nc5n(c4cnc32)CCC5)C1 [Compound 5004] |  |
| 89 | Cn1c(=O)n(C)c2c3cc(C(=O)NCc4ccc(Cl)cc4)c(=O)n(CC(=O)N4CC(C)(F)C4)c3ncc21 [Compound 5006] |  |
| 65 | Cc1cn(C)c2c1cnc1c2cc(C(=O)NCc2ccc(Cl)cc2)c(=O)n1CC(=O)N1CC(C)C1 [Compound 5007] |  |
| 160 | CC1(C)CN(C(=O)Cn2c(=O)c(C(=O)NCc3ccc(Cl)cc3)cc3c4c(cnc32)-c2ccccc2CO4)C1 [Compound 5012] |  |
| 200 | Cn1cc(N2CCOc3c2cnc2c3cc(C(=O)NCc3ccc(Cl)cc3)c(=O)n2CC(=O)N2CC(C)(F)C2)cn1 [Compound 5015] |  |
| 330 | CC1(C)CN(C(=O)Cn2c(=O)c(C(=O)NCc3ccc(Cl)cc3)cc3c4c(cnc32)NCCN4)C1 [Compound 5021] |  |
| 460 | CC1(C)CN(C(=O)Cn2c(=O)c(C(=O)NCc3ccc(Cl)cc3)cc3c4c(cnc32)NC(C)(C)CO4)C1 [Compound 5022] |  |
| 240 | COc1nc2c(cc(C(=O)NCc3ccc(Cl)cc3)c(=O)n2CC(=O)N2CC(C)(F)C2)c2c1nc(C)n2C [Compound 5035] |  |
| 440 | Cc1nc2cnc3c(cc(C(=O)NCc4ccc(Cl)cc4)c(=O)n3CC(=O)N3CC(C)(F)C3)c2nc1C [Compound 5037] |  |
|  | Cc1cc(Cl)ccc1CNC(=O)c1cc2c3c(cnc2n(CC(=O)N2CC(C)(F)C2)c1=O)nc(C)n3C [Compound 5038] | 140 |
| 190 | Cc1nc2cnc3c(cc(C(=O)NCc4ccc(Cl)c(O)c4)c(=O)n3CC(=O)N3CC(C)(F)C3)c2n1C [Compound 5046] |  |
| 170 | COc1cc(CNC(=O)c2cc3c4c(cnc3n(CC(=O)N3CC(C)(F)C3)c2=O)nc(C)n4C)ccc1Cl [Compound 5048] |  |
